Data reported in patent publication US6608032B1, “Medicinal compositions” (Takara Shuzo Co., Ltd., priority 1999, dated 2003).

Experiments:
[1] = test system: α-glucosidase; assay: α-glucosidase inhibition with p-nitrophenyl-α-D-glucopyranoside; type: biochemical, S. cerevisiae
Protocol: (1) An α-glucosidase activity was measured by allowing α-glucosidase to act on p-nitrophenyl-α-D-glucopyranoside (a chromogenic substrate) and calorimetrically quantifying 4-nitrophenol released by hydrolysis.
10 μl of α-glucosidase solution [40 mU/ml, derived from S. cerevisiae, Sigma, dissolved in 10 mM phosphate buffer (pH 7.2 at 37° C.)] and 10 μl of a solution containing a test sample dissolved in 10 mM phosphate buffer (pH 7.2 at 37° C.) were mixed. 80 μl of a 1.5 mg/ml substrate solution [Sigma, dissolved in 10 mM phosphate buffer (pH 7.2 at 37° C.)] was added thereto to initiate the reaction. After reacting at 37° C. for 40 minutes, the absorbance at 410 nm was measured using Shimadzu uv2200. The remaining activity therein was calculated defining the activity observed without the addition of test sample as 100%.
Agarobiose, agarotetraose, agarohexaose and agarooctaose used as test samples were those prepared in Referential Example 1. Commercially available products of anhydrogalactose (Funakoshi), neoagarobiose (Sigma), neoagarotetraose (Funakoshi) and neoagarohexaose (Funakoshi) were used.

[2] = test system: RAW264.7 cells; assay: NO production induced by LPS and IFN-γ in RAW264.7 cells (NO2− in medium, Griess); type: cell-based; details: 10 μl of 5 mM oligosaccharide solution per 500 μl well, added 0.5 or 5 hours before LPS and IFN-γ; 12 hours; FIG. 1
Protocol: RAW264.7 cells (ATCC TIB 71) were suspended in Dulbecco's modified Eagle's medium (Bio Whittaker, 12-917F) without Phenol Red containing 10% fetal calf serum and 2 mM L-glutamine (Life Technologies Oriental, Code. 25030-149) at a concentration of 3×10^5 cells/ml. 500 μl of the suspension was added to each well of a 48-well microtiter plate and the plate was incubated at 37° C. for 6 hours in the presence of 5% CO2. 10 μl of a filter-sterilized oligosaccharide solution containing agarobiose, agarotetraose or agarohexaose prepared in Referential Example 1 at a concentration of 5 mM in water was added to the well. The plate was incubated for additional 0.5 or 5 hours. 10 μl of aqueous solution containing lipopolysaccharide (LPS, Sigma, Code. L-2012) at a concentration of 5 μg/ml and interferon-γ (IFN-γ, sold by Cosmobio, Code. GZM-MG-IFN) at a concentration of 2000 U/ml was added to the well. The plate was incubated for additional 12 hours. The concentration of […] resulting from oxidation of NO in the medium was then measured.
As control groups, a group to which LPS or IFN-γ was not added and a group to which agarobiose, agarotetraose or agarohexaose was not added were provided.
After cultivation, 100 μl of 4% Griess' reagent (Sigma, Code. G4410) was added to 100 μl of the culture supernatant, and the mixture was allowed to stand for 15 minutes at room temperature. The absorbance at 490 nm was then measured. NO2^− concentration in the medium was calculated with reference to a calibration curve prepared by using NaNO2 dissolved in the same medium at a predetermined concentration. All of the measurements were carried out in triplicate.

[3] = test system: HL-60 Nu cells; assay: TPA-induced intracellular peroxides in HL-60 Nu (neutrophil-like) cells; type: cell-based; details: 50 μl of 5 mM solution, 2 hours before TPA; 5 hours; FIG. 2
Protocol: HL-60 cells were added to RPMI 1640 medium (Bio Whittaker, Code. 12-702F) containing 10% fetal calf serum and 1.3% dimethyl sulfoxide (Dojindo Laboratories, Code. 346-03615) and cultured at 37° C. for 1 week in the presence of 5% CO2 to prepare cells differentiated into neutrophil-like cells (hereinafter referred to as HL-60 Nu).
Agarobiose, agarotetraose or agarohexaose obtained in Referential Example 1 was dissolved in water at a concentration of 5 mM. The solution was sterilized by filtration. HL-60 Nu cells were suspended in RPMI 1640 medium containing 10% fetal calf serum at a concentration of 2.5×10^5 cells/2.4 ml. 50 μl of one of the oligosaccharide aqueous solutions was added to a well containing the cells. The cells were cultured at 37° C. for 2 hours in the presence of 5% CO2. Then, 50 μl of a solution containing phorbol 12-myristate 13-acetate (TPA, Gibco, Code. 13139-019) at a concentration of 5 mg/ml in water was added the well. After the cells were cultured for additional 5 hours, intracellular peroxides were determined. As control groups, a group to which TPA was not added and a group to which agarobiose, agarotetraose or agarohexaose as not added were provided.
After cultivation, 10 μl of a solution containing 2′,7′-dichlorofluorescein diacetate (Sigma, Code. D6833) at a concentration of 5 mM in dimethyl sulfoxide was added to the well. The cells were cultured for additional 30 minutes. The cells were then collected by centrifugation and washed twice in phosphate buffered saline. 2′, 7′-dichlorofluorescein, which is generated in proportion to the amount of intracellular peroxides, was determined using FACScan as described in Saibo Kogaku, Bessatsu (Cell Technology, Suppl.) Jikken Protocol Series: Kassei Sanso Jikken Protocol (Experimental Protocol Series: Experimental Protocols for Active Oxigen) (1994, Shujun-sha) pp. 51-54.

[4] = test system: RAW264.7 cells; assay: LPS-induced prostaglandin E2 production in RAW264.7 cells; type: cell-based; details: 10 μl of 5 mM solution per 500 μl well, 0.5 or 5 hours before LPS; 12 hours; FIG. 3
Protocol: RAW264.7 cells (ATCC TIB 71) were suspended in Dulbecco's modified Eagle's medium (Bio Whittaker, Code. 12-604F) containing 10% fetal calf serum at a concentration of 3×10^5 cells/ml. 500 μl of the suspension was added to each well of a 48-well microtiter plate and the plate was incubated at 37° C. for 6 hours in the presence of 5% CO2. 10 μl of a filter-sterilized agarooligosaccharide solution containing agarobiose, agarotetraose or agarohexaose prepared in Referential Example 1 at a concentration of 5 mM in water was added to the well. The plate was incubated for additional 0.5 or 5 hours. 10 μl of 50 μg/ml LPS aqueous solution was then added to the well. After the plate was incubated for additional 12 hours, the amount of prostaglandin E2 was measured. As control groups, a group to which LPS was not added and a group to which agarobiose, agarotetraose or agarohexaose was not added were provided.
After cultivation, the amount of prostaglandin E2 in the culture supernatant was measured using Prostaglandin E2 ELISA Kit (Neogen, Code. 404110). All of the measurements were carried out in triplicate.

Row | SMILES | Activity of inhibiting α-glucosidase (% remaining activity) ([1]; 5 μM) [%] | Activity of inhibiting α-glucosidase (% remaining activity) ([1]; 50 μM) [%] | Activity of inhibiting α-glucosidase (% remaining activity) ([1]; 500 μM) [%] | Activity of inhibiting α-glucosidase (% remaining activity) ([1]; 1000 μM) [%] | Activity of inhibiting α-glucosidase (% remaining activity) ([1]; 5000 μM) [%] | NO production induced by LPS and IFN-γ [2] | TPA-induced generation of intracellular peroxides [3] | prostaglandin E2 production induced by LPS [4]
1 | OCC1OC(OC2C3COC2C(O)C(OC2C(O)C(CO)OC(OC4C5COC4C(O)C(OC4C(O)C(CO)OC(OC6C7COC6C(O)C(O)O7)C4O)O5)C2O)O3)C(O)C(O)C1O (stereo not drawn) [Agarohexaose, agarohexaose] | 91 | 91 | 47 | 35 | 7 | inhibited NO production induced by LPS and IFN-γ | inhibition of TPA-induced generation of intracellular peroxides was observed | inhibited the prostaglandin E2 production induced by LPS
2 | OC[C@H]1O[C@@H](O[C@H]2[C@H]3OC[C@@H]2OC(O)[C@H]3O)[C@H](O)[C@@H](O)[C@H]1O (mixture of isomers) [Agarobiose, agarobiose] | 100 | 100 | 100 | 100 | 100 | inhibited NO production induced by LPS and IFN-γ | Slight inhibition | inhibited the prostaglandin E2 production induced by LPS
3 | OCC1OC(OC2C3COC2C(O)C(OC2C(O)C(CO)OC(OC4C5COC4C(O)C(O)O5)C2O)O3)C(O)C(O)C1O (stereo not drawn) [Agarotetraose, agarotetraose] | 100 | 97 | 75 | 32 | 20 | inhibited NO production induced by LPS and IFN-γ | Slight inhibition | inhibited the prostaglandin E2 production induced by LPS
